Data: patent publication US20030050307A1, “Novel indole derivatives” (H. Lundbeck A/S, priority 1999, published 2003)

Legend:
[1] = molecular target: T1, human cloned dopamine D4.2-receptors (Homo sapiens, UniProt P21917, DEL265-296); assay: Inhibition of the binding of 3H-YM-09151-2 to human dopamine D4 receptors; details: [3H]YM-09151-2 0.06 nM; for IC50: membranes of CHO-cells expressing human D4.2; for inhibition at 0.1 µM: at 100 nM, CHO-cell membranes, human D4.2
T1 construct: expressed in transfected cells; host or cells: CHO cells
T1 sequence (P21917 with tags, fused parts or gaps DEL265-296): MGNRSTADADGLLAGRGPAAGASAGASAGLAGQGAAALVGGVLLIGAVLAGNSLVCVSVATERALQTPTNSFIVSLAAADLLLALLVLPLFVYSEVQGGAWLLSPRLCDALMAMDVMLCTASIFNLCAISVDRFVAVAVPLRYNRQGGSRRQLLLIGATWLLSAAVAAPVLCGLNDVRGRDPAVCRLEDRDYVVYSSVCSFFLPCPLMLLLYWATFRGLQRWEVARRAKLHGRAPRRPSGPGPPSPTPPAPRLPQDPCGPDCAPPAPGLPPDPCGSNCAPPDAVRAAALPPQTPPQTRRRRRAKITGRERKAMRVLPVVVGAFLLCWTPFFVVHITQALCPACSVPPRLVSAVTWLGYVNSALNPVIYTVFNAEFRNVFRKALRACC
Experimental: Inhibition of the Binding of ^3H-YM-09151-2 to Human Dopamine D4 Receptors
By this method, the inhibition by drugs of the binding of [^3H]YM-09151-2 (0.06 nM) to membranes of human cloned dopamine D4.2-receptors expressed in CHO-cells is determined in vitro. Method modified from NEN Life Science Products, Inc., technical data certificate PC2533-10/96.

[2] = molecular target: T2, cloned human 5-HT1A-receptors (Homo sapiens, UniProt P08908); assay: Inhibition of 3H-5-CT binding to human 5-HT1A receptors; details: transfected HeLa cells (HA7), 15 minutes at 37° C., pH 7.7; for inhibition at 0.05 µM: at 50 nM
T2 construct: expressed in transfected cells; host or cells: HeLa cells (HA7)
T2 sequence (P08908 1-422): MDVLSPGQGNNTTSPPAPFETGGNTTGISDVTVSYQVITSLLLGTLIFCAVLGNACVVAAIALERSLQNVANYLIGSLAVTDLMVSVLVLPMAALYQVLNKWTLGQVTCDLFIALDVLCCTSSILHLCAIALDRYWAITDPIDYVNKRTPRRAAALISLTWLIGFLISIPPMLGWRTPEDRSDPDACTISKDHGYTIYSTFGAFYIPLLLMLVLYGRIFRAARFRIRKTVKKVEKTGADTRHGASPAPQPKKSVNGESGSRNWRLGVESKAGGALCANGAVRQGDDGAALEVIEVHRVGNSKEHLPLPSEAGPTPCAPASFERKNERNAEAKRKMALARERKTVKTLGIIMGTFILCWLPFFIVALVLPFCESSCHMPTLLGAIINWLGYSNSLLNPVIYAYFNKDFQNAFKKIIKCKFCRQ
Experimental: The affinity of the compounds of the invention to 5-HT1A receptors was determined by measuring the inhibition of binding of a radioactive ligand at 5-HT1A-receptors as described in the following test:
Inhibition of ^3H-5-CT Binding to Human 5-HT1A Receptors.
By this method, the inhibition by drugs of the binding of the 5-HT1A-agonist ^3H-5-carboxamido tryptamine (^3H-5-CT) to cloned human 5-HT1A-receptors stably expressed in transfected HeLa cells (HA7) (Fargin, A. et al. J. Biol. Chem. 1989, 264, 14848) is determined in vitro. The assay was performed as a modification of the method described by Harrington, M. A. et al. J. Pharmacol. Exp. Ther. 1994, 268, 1098. Human 5-HT1A-receptors (40 μg of cell homogenate) were incubated for 15 minutes at 37° C. in 50 mM Tris buffer at pH 7.7 in the presence of ^3H-5-CT. Non-specific binding was determined by including 10 μM of metergoline. The reaction was terminated by rapid filtration through Unifilter GF/B filters on a Tomtec Cell Harvester. Filters were counted in a Packard Top Counter.

Structure (SMILES)	IC50 [1] [nM]	IC50 [2] [nM]	inhibition at 0.1 µM [1] [%]	inhibition at 0.05 µM [2] [%]
Clc1ccccc1SCCCN1CCN(c2cccc3[nH]ccc23)CC1 [Compound 2a, 4-{4-[3-(2-Chloro-phenylsulfanyl)-propyl]-piperazin-1-yl}-1H-indole]	1.1	2.4	–	–
Brc1ccccc1SCCCN1CCN(c2cccc3[nH]ccc23)CC1 [Compound 2b, 4-(4-[3-(2-Bromo-phenylsulfanyl)-propyl]-piperazin-1-yl}-1H-indole]	1.2	2.7	–	–
Cc1cccc(Cl)c1SCCCCN1CCN(c2cccc3[nH]ccc23)CC1 [Compound 2e, 4-{4-[4-(2-Chloro-6-methyl-phenylsulfanyl)-butyl]-piperazin-1-yl}-1H-indole]	2.2	4.5	–	–
Fc1ccc(SCCN2CCN(c3cccc4[nH]ccc34)CC2)c(Cl)c1 [Compound 3a, 4-{4-[2-(2-Chloro-4-fluoro-phenylsulanyl)-ethyl]-piperazin-1-yl}-1H-indole]	6.6	15	–	–
Fc1ccc(SCCCN2CCN(c3cccc4[nH]ccc34)CC2)c(Cl)c1 [Compound 4a]	0.52	9.3	–	–
Clc1cccc(Cl)c1SCCCCN1CCN(c2cccc3[nH]ccc23)CC1 [Compound 4d, 4-{4-[4-(2,6-Dichloro-phenylsulfanyl)-butyl]-piperazin-1-yl}-1H-indole]	1.8	7.1	–	–
Cc1cccc(Cl)c1SCCCCN1CCN(c2cccc3[nH]ccc23)CC1 [Compound 4f]	3	5.8	–	–
Clc1cccc(Cl)c1SCCCN1CCN(c2cccc3[nH]ccc23)CC1 [Compound 4q, 4-{4-[3-(2,6-Dichloro-phenylsulfanyl)-propyl]-piperazin-1-yl}-1H-indole]	7.2	3.5	–	–
Cc1cccc(C)c1SCCCCN1CCN(c2cccc3[nH]ccc23)CC1 [Compound 5ab, 4-{4-[4-(2,6-Dimethyl-phenylsulfanyl)-butyl]-piperazin-1-yl}-1H-indole]	–	–	95	83
Cc1ccc(SCCN2CCN(c3cccc4[nH]ccc34)CC2)c(C)c1 [Compound 5ac, 4-{4-[2-(2,4-Dimethyl-phenylsulfanyl)-ethyl]-piperazin-1-yl}-1H-indole]	–	–	83	85
Clc1cccc(SCCN2CCN(c3cccc4[nH]ccc34)CC2)c1Cl [Compound 5ad, 4-{4-[2-(2,3-Dichloro-phenylsulfanyl)-ethyl]-piperazin-1-yl}-1H-indole]	4.1	–	–	76
FC(F)(F)c1ccccc1SCCCN1CCN(c2cccc3[nH]ccc23)CC1 [Compound 5af, 4-{4-[3-(2-Trifluoromethyl-phenylsulfanyl)-propyl]-piperazin-1-yl}-1H-indole]	7.2	–	–	93
CCc1ccccc1OCCCCN1CCN(c2cccc3[nH]ccc23)CC1 [Compound 5ai, 4-{4-[4-(2-Ethyl-phenoxy)-butyl]-piperazin-1-yl}-1H-indole]	–	–	90	93

Results, then the molecule that gave them:

IC50 [1] [nM]	IC50 [2] [nM]	inhibition at 0.1 µM [1] [%]	inhibition at 0.05 µM [2] [%]	Structure (SMILES)
1.6	6.4	–	–	Fc1ccc(OCCCCN2CCN(c3cccc4[nH]ccc34)CC2)c(Br)c1 [Compound 2d, 4-{4-[4-(2-Bromo-4-fluoro-phenoxy)-butyl]-piperazin-1-yl}-1H-indole]
0.66	2.4	–	–	Fc1ccc(OCCCCN2CCN(c3cccc4[nH]ccc34)CC2)c(Br)c1 [Compound 4b, 4-{4-[4-(2-Bromo-4-fluoro-phenoxy)-butyl]-piperazin-1-yl}-1H-indole]
1.6	5.4	–	–	Fc1ccc(OCCCN2CCN(c3cccc4[nH]ccc34)CC2)c(F)c1 [Compound 4c]
2	4.9	–	–	Fc1ccc(OCCCN2CCN(c3cccc4[nH]ccc34)CC2)c(Cl)c1 [Compound 4e, 4-{4-[3-(2-Chloro-4-fluoro-phenoxy)-propyl]-piperazin-1-yl}-1H-indole]
4.9	2.4	–	–	Fc1cc(Cl)c(OCCCCN2CCN(c3cccc4[nH]ccc34)CC2)c(Cl)c1 [Compound 4g, 4-{4-[4-(2,6-Dichloro-4-fluoro-phenoxy)-butyl]-piperazin-1-yl}-1H-indole]
5.4	1.4	–	–	Fc1cc(F)c(OCCCN2CCN(c3cccc4[nH]ccc34)CC2)c(Br)c1 [Compound 4h, 4-{4-[3-(2-Bromo-4,6-difluoro-phenoxy)-propyl]-piperazin-1-yl}-1H-indole]
16	1	–	–	Fc1cc(Cl)c(OCCCN2CCN(c3cccc4[nH]ccc34)CC2)c(Cl)c1 [Compound 4i, 4-{4-[3-(2,6-Dichloro-4-fluoro-phenoxy)-propyl]-piperazin-1-yl}-1H-indole]
23	17	–	–	Fc1cc(Br)cc(F)c1OCCCCN1CCN(c2cccc3[nH]ccc23)CC1 [Compound 4j, 4-{4-[4-(4-Bromo-2,6-difluoro-phenoxy)-butyl]-piperazin-1-yl}-1H-indole]
26	6.7	–	–	Fc1cc(Br)c(OCCCCN2CCN(c3cccc4[nH]ccc34)CC2)c(Br)c1 [Compound 4k, 4-{4-[4-(2,6-Dibromo-4-fluoro-phenoxy)-butyl]-piperazin-1-yl}-1H-indole]
28	1.1	–	–	Brc1cc(Br)c(OCCCN2CCN(c3cccc4[nH]ccc34)CC2)c(Br)c1 [Compound 4l, 14-{4-[3-(2,4,6-Tribromo-phenoxy)-propyl]-piperazin-1-yl}-1H-indole]
39	1	–	–	Fc1cc(Br)cc(F)c1OCCCN1CCN(c2cccc3[nH]ccc23)CC1 [Compound 4m, 4-{4-[3-(4-Bromo-2,6-difluoro-phenoxy)-propyl]-piperazin-1-yl}-1H-indole]
230	0.72	–	–	CCC(=O)c1cc(F)c(OCCCN2CCN(c3cccc4[nH]ccc34)CC2)c(F)c1 [Compound 4n, 1-(3,5-Difluoro-4-{3-[4-(1H-indol-4-yl)-piperazin-1-yl]-propoxy}-phenyl)-propan-1-one]
32	0.72	–	–	N#Cc1cc(Br)c(OCCCN2CCN(c3cccc4[nH]ccc34)CC2)c(Br)c1 [Compound 4o, 3,5-Dibromo-4-{3-[4-(1H-indol-4-yl)-piperazin-1-yl]-propoxy}-benzonitrile]
13	36	–	–	Fc1cc(F)c(OCCN2CCN(c3cccc4[nH]ccc34)CC2)c(Br)c1 [Compound 4p, 4-{4-[2-(2-Bromo-4,6-difluoro-phenoxy)-ethyl]-piperazin-1-yl}-1H-indole]
–	–	81	78	Cc1cccc(C)c1OCCN1CCN(c2cccc3[nH]ccc23)CC1 [Compound 5aa, 4-{4-[2-(2,6-Dimethyl-phenoxy)-ethyl]-piperazin-1-yl}-1H-indole]
–	–	88	92	C=CCc1cccc(Cl)c1OCCN1CCN(c2cccc3[nH]ccc23)CC1 [Compound 5ae, 4-{4-[2-(2-Allyl-6-chloro-phenoxy)-ethyl]-piperazin-1-yl}1H-indole]
–	–	95	93	Clc1ccc(SCCCN2CCN(c3cccc4[nH]ccc34)CC2)cc1Cl [Compound 5ag, 4-{4-[3-(3,4-Dichloro-phenylsulfanyl)-propyl]-piperazin-1-yl}-1H-indole]
–	–	90	86	Cc1ccc(OCCCCN2CCN(c3cccc4[nH]ccc34)CC2)c(C)c1 [Compound 5ah, 4-{4-[4-(2,4-Dimethyl-phenoxy)-butyl]-piperazin-1-yl}-1H-indole]
